Assays:
SARS-CoV-2 = test: Ivermectin effect on preventing SARS-CoV-2 infection of pretreated Vero-E6 cells (qRT-PCR); format: cell-based
Procedure: Assessment of Ivermectin effect on preventing SARS-CoV-2 infection Vero-E6 cells were incubated with 0.01, 0.025, 0.05, 0.1, 0.5, 1 or 5 μM concentrations of ivermectin during 2, 6, 16 or 24 hours. Then, cells were infected with SARS-CoV-2 at a multiplicity of infection (MOI) of 0.001, 0.01 or 0.1. After 2 hours of incubation in the presence of the virus, medium with the same concentration of ivermectin was added again. After 24, 48 or 72 hours, viral charge is quantified by qRT-PCR.

[1] = system: SARS-CoV-2 clinical isolate; conditions: Vero/hSLAM cells, cited from earlier work
Zika virus (ZIKV) = conditions: mice; cited from earlier work
Vero-E6 cells = test: Cytotoxicity in non-infected Vero-E6 cells (cell viability); format: cell-based; conditions: 0.01-5 μM ivermectin
Procedure: For avoiding false positives, cytotoxicity was evaluated by culturing non-infected cells in the same conditions and with the same concentrations of ivermectin. Cell viability was then determined.

DENV = conditions: single daily oral dose; cited from earlier work

ivermectin
preincubation-time dependency of inhibition of viral replication (SARS-CoV-2; 72 hours post-infection, preincubation 2, 6, 16 or 24 hours): the longer the preincubation time with ivermectin, the higher the inhibition of viral replication
viral replication (RT-qPCR) (SARS-CoV-2; cells pretreated with ivermectin at 5 μM): highly inhibited
antiviral action in vitro [1]: has antiviral action
time within which a single dose controls viral replication ([1]; single dose): 24 to 48 h
effectiveness against Zika virus (Zika virus (ZIKV)): not effective
cell toxicity (Vero-E6 cells): No cell toxicity
safety (DENV): safe
serum levels of viral NS1 protein (DENV): significant reduction
viremia or clinical benefit (DENV): no change

— patent US20240099964A1, “Methods and Compositions for the Prophylactic Treatment of SARS-CoV-2 virus (COVID-19)” (MedinCell S.A., priority 2020, published 2024)
